Source: patent US7396837B2, “Antitumoral analogs of lamellarins” (Pharma Mar, S.A.U., priority 2002, dated 2008)
Read-outs that look alike come from different tables or passages of the source.

Columns and labels:
Assay type in all cases: cell-based
SK-MEL-28 = assay: SRB colorimetric cell growth inhibition assay, SK-MEL-28; conditions: Homo sapiens; for GI50: GI=growth inhibition, read-out: GI50 MEL-28; for IC (TGI): read-out: TGI MEL-28
How it was run: (§1)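 Continuous drug exposure of human cancer cells; SRB protein stain read-out; triplicate wells, mean ± SD; GI, TGI, LC computed.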

IGROV-ET = assay: SRB colorimetric cell growth inhibition assay, IGROV-ET (ET-743 resistant); conditions: Homo sapiens; for GI50: GI=growth inhibition, read-out: GI50 IGROV-ET; for IC (TGI): read-out: TGI IGROV-ET
How it was run: as §1

K-562 = assay: SRB colorimetric cell growth inhibition assay, K-562; conditions: Homo sapiens; for GI50: GI=growth inhibition, read-out: GI50 K-562; for IC (TGI): read-out: TGI K-562
How it was run: as §1

PANC-1 = assay: SRB colorimetric cell growth inhibition assay, PANC-1; conditions: Homo sapiens; for GI50: GI=growth inhibition, read-out: GI50 PANC-1; for IC (TGI): read-out: TGI PANC-1
How it was run: as §1

SK-BR-3 = assay: SRB colorimetric cell growth inhibition assay, SK-BR-3; conditions: Homo sapiens; for GI50: GI=growth inhibition, read-out: GI50 SK-BR-3; for IC (TGI): read-out: TGI SK-BR-3
How it was run: as §1

LoVo = assay: SRB colorimetric cell growth inhibition assay, LoVo; conditions: Homo sapiens, LoVo; for GI50: GI=growth inhibition, read-out: GI50 LOVO; for IC (TGI): read-out: TGI LOVO
How it was run: as §1

HeLa-APL = assay: SRB colorimetric cell growth inhibition assay, HeLa-APL (aplidine resistant); conditions: Homo sapiens; for GI50: read-out: GI50 HELA-APL; for IC (TGI): read-out: TGI HELA-APL
How it was run: as §1

HeLa = assay: SRB colorimetric cell growth inhibition assay, HeLa; conditions: Homo sapiens, HeLa; for IC (TGI): read-out: TGI HELA; for GI50: GI=growth inhibition, read-out: GI50 HELA
How it was run: as §1

LoVo-Dox = assay: SRB colorimetric cell growth inhibition assay, LoVo-Dox (MDR); conditions: Homo sapiens; for GI50: GI=growth inhibition, read-out: GI50 LOVO-DOX; for IC (TGI): read-out: TGI LOVO-DOX
How it was run: as §1

DU-145 = assay: SRB colorimetric cell growth inhibition assay, DU-145; conditions: Homo sapiens; for GI50: GI=growth inhibition, read-out: GI50 DU-145; for IC (TGI): read-out: TGI DU-145
How it was run: as §1

HT-29 = assay: SRB colorimetric cell growth inhibition assay, HT-29; conditions: Homo sapiens; for GI50: GI=growth inhibition, read-out: GI50 HT-29; for IC (TGI): read-out: TGI HT-29
How it was run: as §1

A-549 = assay: SRB colorimetric cell growth inhibition assay, A-549; conditions: Homo sapiens; for GI50: GI=growth inhibition, read-out: GI50 A-549; for IC (TGI): read-out: TGI A-549
How it was run: as §1

LNCaP = assay: SRB colorimetric cell growth inhibition assay, LNCaP; conditions: Homo sapiens, LNCaP; for GI50: GI=growth inhibition, read-out: GI50 LN-caP; for IC (TGI): read-out: TGI LN-caP
How it was run: as §1

IGROV = assay: SRB colorimetric cell growth inhibition assay, IGROV; conditions: Homo sapiens, IGROV; for GI50: GI=growth inhibition, read-out: GI50 IGROV; for IC (TGI): read-out: TGI IGROV
How it was run: as §1

[1] = TGI=total growth inhibition (cytostatic effect)
[2] = total growth inhibition (cytostatic effect)

COc1cc(-c2c3n(c4c(=O)oc5cc(OC(=O)[C@H](CO)NC(=O)OC(C)(C)C)c(OC)cc5c24)CCc2c-3cc(OC)c(OC)c2OC(=O)[C@H](CO)NC(=O)OC(C)(C)C)ccc1OC(=O)[C@H](CO)NC(=O)OC(C)(C)C [Compound 60]
GI50 (SK-MEL-28; SK-MEL-28, MEL-28): 1170 nM | IC (TGI) (SK-MEL-28; SK-MEL-28, MEL-28, TGI=total growth inhibition (cytostatic effect)): 4.14 µM | CC50 (SK-MEL-28; SK-MEL-28, read-out: LC50 MEL-28, MEL-28, LC=cell killing (cytotoxic effect)): 9.15 µM | GI50 (IGROV-ET; IGROV-ET): 2560 nM | IC (TGI) (IGROV-ET; IGROV-ET, TGI=total growth inhibition (cytostatic effect)): 6.16 µM | CC50 (IGROV-ET; read-out: LC50 IGROV-ET, IGROV-ET, LC=cell killing (cytotoxic effect)): 9.15 µM | GI50 (K-562; K562, K-562): 697 nM | IC (TGI) (K-562; K562, K-562, TGI=total growth inhibition (cytostatic effect)): 2.19 µM | CC50 (K-562; K562, read-out: LC50 K-562, K-562, LC=cell killing (cytotoxic effect)): 6.87 µM | GI50 (PANC-1; PANC-1, PANC-1): 747 nM | IC (TGI) (PANC-1; PANC-1, PANC-1, TGI=total growth inhibition (cytostatic effect)): 4.4 µM | CC50 (PANC-1; PANC-1, read-out: LC50 PANC-1, PANC-1, LC=cell killing (cytotoxic effect)): 9.15 µM | GI50 (SK-BR-3; SK-BR-3, SK-BR-3): 491 nM | IC (TGI) (SK-BR-3; SK-BR-3, SK-BR-3, TGI=total growth inhibition (cytostatic effect)): 1.64 µM | CC50 (SK-BR-3; SK-BR-3, read-out: LC50 SK-BR-3, SK-BR-3, LC=cell killing (cytotoxic effect)): 8.58 µM | CC50 (LoVo; read-out: LC50 LOVO, LOVO, LC=cell killing (cytotoxic effect)): 7.94 µM | GI50 (LoVo): 1610 nM | IC (TGI) (LoVo; [1]): 3.58 µM | GI50 (HeLa-APL): 3490 nM | CC50 (HeLa-APL; read-out: LC50 HELA-APL, HELA-APL, LC=cell killing (cytotoxic effect)): 9.15 µM | IC (TGI) (HeLa-APL): 9.15 µM | CC50 (HeLa; read-out: LC50 HELA, HELA, LC=cell killing (cytotoxic effect)): 6.13 µM | IC (TGI) (HeLa): 2.51 µM | GI50 (HeLa): 1020 nM | GI50 (LoVo-Dox; LOVO-DOX): 2820 nM | CC50 (LoVo-Dox; read-out: LC50 LOVO-DOX, LOVO-DOX, LC=cell killing (cytotoxic effect)): 9.15 µM | IC (TGI) (LoVo-Dox; LOVO-DOX, TGI=total growth inhibition (cytostatic effect)): 9.15 µM | GI50 (DU-145; DU-145, DU-145): 1180 nM | IC (TGI) (DU-145; DU-145, DU-145, TGI=total growth inhibition (cytostatic effect)): 2.65 µM | CC50 (DU-145; DU-145, read-out: LC50 DU-145, DU-145, LC=cell killing (cytotoxic effect)): 5.97 µM | GI50 (HT-29; HT-29, HT-29): 2.42 µM | IC (TGI) (HT-29; HT-29, HT-29, TGI=total growth inhibition (cytostatic effect)): 5.88 µM | CC50 (HT-29; HT-29, read-out: LC50 HT-29, HT-29, LC=cell killing (cytotoxic effect)): 9.15 µM | GI50 (A-549; A549, A-549): 1620 nM | IC (TGI) (A-549; A549, A-549, TGI=total growth inhibition (cytostatic effect)): 4.63 µM | CC50 (A-549; A549, read-out: LC50 A-549, A-549, LC=cell killing (cytotoxic effect)): 9.15 µM | GI50 (LNCaP; LN-caP): 550 nM | IC (TGI) (LNCaP; LN-caP, TGI=total growth inhibition (cytostatic effect)): 1.79 µM | CC50 (LNCaP; read-out: LC50 LN-caP, LN-caP, LC=cell killing (cytotoxic effect)): 5250 nM | CC50 (IGROV; read-out: LC50 IGROV, IGROV, LC=cell killing (cytotoxic effect)): 9.15 µM | GI50 (IGROV): 682 nM | IC (TGI) (IGROV; [1]): 3.29 µM

COc1cc(-c2c3c4cc(OC)c(OC(=O)[C@@H]5CCCN5)cc4oc(=O)c3n3ccc4cc(OC(=O)[C@@H]5CCCN5)c(OC)cc4c23)ccc1OC(=O)[C@@H]1CCCN1 [Compound 180]
GI50 (SK-MEL-28; SK-MEL-28, MEL-28): 13.4 nM | CC50 (SK-MEL-28; SK-MEL-28, MEL-28, cell killing (cytotoxic effect), read-out: LC50 MEL-28): 11.1 µM | IC (TGI) (SK-MEL-28; SK-MEL-28, MEL-28, total growth inhibition (cytostatic effect)): 0.126 µM | GI50 (IGROV-ET; IGROV-ET): 69.1 nM | CC50 (IGROV-ET; IGROV-ET, cell killing (cytotoxic effect), read-out: LC50 IGROV-ET): 11.1 µM | IC (TGI) (IGROV-ET; IGROV-ET, total growth inhibition (cytostatic effect)): 0.531 µM | GI50 (K-562; K562, K-562): 40 nM | CC50 (K-562; K562, K-562, cell killing (cytotoxic effect), read-out: LC50 K-562): 11.1 µM | IC (TGI) (K-562; K562, K-562, total growth inhibition (cytostatic effect)): 1.53 µM | GI50 (PANC-1; PANC-1, PANC-1): 130 nM | CC50 (PANC-1; PANC-1, PANC-1, cell killing (cytotoxic effect), read-out: LC50 PANC-1): 11.1 µM | IC (TGI) (PANC-1; PANC-1, PANC-1, total growth inhibition (cytostatic effect)): 0.0111 µM | GI50 (SK-BR-3; SK-BR-3, SK-BR-3): 18.1 nM | CC50 (SK-BR-3; SK-BR-3, SK-BR-3, cell killing (cytotoxic effect), read-out: LC50 SK-BR-3): 1.19 µM | IC (TGI) (SK-BR-3; SK-BR-3, SK-BR-3, total growth inhibition (cytostatic effect)): 0.0541 µM | GI50 (LoVo): 535 nM | CC50 (LoVo; cell killing (cytotoxic effect), read-out: LC50 LOVO): 8.51 µM | IC (TGI) (LoVo; [2]): 2.01 µM | GI50 (HeLa-APL; HELA-APL, GI=growth inhibition): 130 nM | CC50 (HeLa-APL; HELA-APL, cell killing (cytotoxic effect), read-out: LC50 HELA-APL): 11.1 µM | IC (TGI) (HeLa-APL; HELA-APL, total growth inhibition (cytostatic effect)): 1.21 µM | GI50 (HeLa): 80.6 nM | CC50 (HeLa; cell killing (cytotoxic effect), read-out: LC50 HELA): 11.1 µM | IC (TGI) (HeLa; [2]): 1.99 µM | GI50 (LoVo-Dox; LOVO-DOX): 104 nM | CC50 (LoVo-Dox; LOVO-DOX, cell killing (cytotoxic effect), read-out: LC50 LOVO-DOX): 11.1 µM | IC (TGI) (LoVo-Dox; LOVO-DOX, total growth inhibition (cytostatic effect)): 0.498 µM | GI50 (DU-145; DU-145, DU-145): 35.9 nM | CC50 (DU-145; DU-145, DU-145, cell killing (cytotoxic effect), read-out: LC50 DU-145): 11.1 µM | IC (TGI) (DU-145; DU-145, DU-145, total growth inhibition (cytostatic effect)): 0.0842 µM | GI50 (HT-29; HT-29, HT-29): 11.1 µM | CC50 (HT-29; HT-29, HT-29, cell killing (cytotoxic effect), read-out: LC50 HT-29): 11.1 µM | IC (TGI) (HT-29; HT-29, HT-29, total growth inhibition (cytostatic effect)): 11.1 µM | GI50 (A-549; A549, A-549): 20.1 nM | CC50 (A-549; A549, A-549, cell killing (cytotoxic effect), read-out: LC50 A-549): 7.26 µM | IC (TGI) (A-549; A549, A-549, total growth inhibition (cytostatic effect)): 0.233 µM | GI50 (LNCaP; LN-caP): 53 nM | CC50 (LNCaP; LN-caP, cell killing (cytotoxic effect), read-out: LC50 LN-caP): 615 nM | IC (TGI) (LNCaP; LN-caP, total growth inhibition (cytostatic effect)): 0.227 µM | GI50 (IGROV): 53 nM | CC50 (IGROV; cell killing (cytotoxic effect), read-out: LC50 IGROV): 11.1 µM | IC (TGI) (IGROV; [2]): 0.319 µM
